# Values quoted from earlier work in US11154542B2, “Nail lacquer composition containing ciclopirox” (GENUONE SCIENCES INC., priority 2015, dated 2021).
# Tested on: fungus
# Conditions: laboratory researches
smiles,measurement,value
"CCC(C)(C)c1ccc(CC(C)CN2C[C@@H](C)O[C@@H](C)C2)cc1 (some centres unmarked) [amorolfine, Amorolfine]",antifungal activity,low antifungal activity
same,formation of spores that resist antifungal agents,effective in reducing the formation of spores
